Reference: ChEMBL document CHEMBL3120134, “A review of non-nucleoside anti-hepatitis B virus agents” (Eur J Med Chem, 2014)
In brackets after ≈: the same amount, converted by molar mass.

Columns and labels:
[1] = system: Hepatitis B virus; test: Antiviral activity against Hepatitis B virus; format: functional, organism-based
[2] = system: Hepatitis B virus; test: Antiviral activity against Hepatitis B virus assessed as inhibition of Hepatitis B virus DNA replication; format: functional, organism-based
[3] = system: Hepatitis B virus; test: Antiviral activity against Hepatitis B virus infected in human HepG2.2.15 cells assessed as decrease in HBV surface antigen secretion at 200 ug/ml after 9 days by ELISA; format: functional; settings: HepG2 2.2.15, 216 h
[4] = system: Hepatitis B virus; test: Antiviral activity against Hepatitis B virus infected in human HepG2.2.15 cells assessed as decrease in HBV e antigen secretion at 200 ug/ml after 9 days by ELISA; format: functional; settings: HepG2 2.2.15, 216 h
[5] = system: Duck hepatitis B virus; test: Antiviral activity against Duck Hepatitis B virus infected in duckling assessed as decrease in DHBV level in serum at 120 mg/kg dosed through liquid diet for 10 days administered started on day 7 post-infection; format: functional
[6] = system: Hepatitis B virus; test: Antiviral activity against Hepatitis B virus infected in human HepG2.2.15 cells assessed as decrease in HBV e antigen secretion; format: functional, organism-based, HepG2 2.2.15; settings: for IC50: Hepatitis B virus, HepG2 2.2.15
[7] = system: Hepatitis B virus; test: Antiviral activity against Hepatitis B virus infected in human HepG2.2.15 cells assessed as decrease in HBV surface antigen secretion; format: functional, organism-based, HepG2 2.2.15; settings: for IC50: Hepatitis B virus, HepG2 2.2.15
[8] = system: Hepatitis B virus; test: Antiviral activity against Hepatitis B virus assessed as inhibition of virion production; format: functional, organism-based
[9] = system: Hepatitis B virus; test: Antiviral activity against Hepatitis B virus infected in human Huh7 cells assessed as inhibition of HBV particles production; format: functional, organism-based; settings: Huh-7
[10] = system: Hepatitis B virus; test: Antiviral activity against Hepatitis B virus infected in human HepG2.2.15 cells assessed as decrease in HBV DNA production; format: functional, organism-based; settings: HepG2 2.2.15
[11] = Selectivity index, ratio of cytotoxicity towards human HepG2.2.15 cells to IC50 for HBV DNA production; format: toxicity, cell-based; settings: read-out: Selectivity Index
[12] = system: Hepatitis B virus; test: Antiviral activity against Hepatitis B virus assessed as inhibition of interaction between Trx-PreS and HBcAg; format: functional, organism-based
[13] = Selectivity index, ratio of cytotoxicity towards human HepG2.2.15 cells to IC50 for HBV e antigen secretion; format: toxicity, cell-based; settings: read-out: Selectivity Index
[14] = Selectivity index, ratio of cytotoxicity towards human HepG2.2.15 cells to IC50 for HBV surface antigen secretion; format: toxicity, cell-based; settings: read-out: Selectivity Index
[15] = system: Duck hepatitis B virus; test: Antiviral activity against Duck Hepatitis B virus infected in duckling assessed as decrease in DHBV DNA replication at 0.2 g/kg dosed for 10 days; format: functional; settings: 240 h
[16] = system: Hepatitis B virus; test: Antiviral activity against Hepatitis B virus infected in human HepG2.2.15 cells assessed as decrease in HBV surface antigen secretion after 21 days; format: functional, organism-based; settings: HepG2 2.2.15, 504 h
[17] = system: Hepatitis B virus; test: Antiviral activity against Hepatitis B virus assessed as inhibition of Hepatitis B virus surface antigen secretion; format: functional, organism-based
[18] = system: Hepatitis B virus; test: Antiviral activity against Hepatitis B virus assessed as inhibition of Hepatitis B virus e antigen secretion; format: functional, organism-based
[19] = system: Hepatitis B virus; test: Antiviral activity against Hepatitis B virus infected in human HepG2.2.15 cells assessed as decrease in HBV DNA production by quantitative RT-PCR analysis; format: functional, organism-based; settings: HepG2 2.2.15
[20] = system: Hepatitis B virus; test: Antiviral activity against Hepatitis B virus infected in human HepG2.2.15 cells assessed as decrease in HBV surface antigen secretion by ELISA; format: functional, organism-based; settings: HepG2 2.2.15
[21] = system: Hepatitis B virus; test: Antiviral activity against Hepatitis B virus infected in human HepG2.2.15 cells assessed as decrease in HBV e antigen secretion by ELISA; format: functional, organism-based; settings: HepG2 2.2.15
[22] = system: Hepatitis B virus; test: Antiviral activity against Hepatitis B virus infected in human MS-G2 cells assessed as decrease in HBV surface antigen production at 20 ug/ml; format: functional
[23] = system: Hepatitis B virus; test: Antiviral activity against Hepatitis B virus infected in human HepG2.2.15 cells assessed as decrease in HBV e antigen secretion after 9 days; format: functional, organism-based; settings: HepG2 2.2.15, 216 h

O=C(Nc1ncc(Cl)s1)c1ccccc1O
EC50 [1]: 0.12 µM

Cc1ccc(O)c(C(=O)Nc2ncc(Cl)s2)c1
EC50 [1]: 0.12 µM

Cc1ccc(C(=O)Nc2ncc(Cl)s2)c(O)c1
EC50 [1]: 0.12 µM

O=C(Nc1ncc(Br)s1)c1ccccc1O
EC50 [1]: 0.12 µM

NC(=O)c1cc2ccc3c(c2c(-c2ccc4c(c2)OCO4)c1C(=O)O)OCO3
EC50 [1]: 0.8 µM

CCOC(=O)c1c(C[S+]([O-])c2cccc(F)c2)n(C)c2cc(Br)c(O)c(CN3CCOCC3)c12 (centres undefined)
IC50 [1]: < 60 µg/mL

COC(=O)C1=C(C)NC(c2nccs2)=N[C@H]1c1ccc(F)cc1Cl
IC50 [2]: 0.03 µM

COC(=O)C1=C(C)NC(c2ncccc2F)=N[C@@H]1c1ccc(F)cc1Cl
IC50 [2]: 0.15 µM

CC(C)(O)[C@@H]1CC[C@](C)([C@H]2[C@@H](O)C[C@@]3(C)[C@@H]4C[C@H](O[C@@H]5O[C@H](CO)[C@@H](O)[C@H](O)[C@H]5O)[C@H]5C(C)(C)[C@@H](O[C@@H]6OC[C@@H](O)[C@H](O)[C@H]6O)CC[C@@]56C[C@@]46CC[C@]23C)O1
inhibition at 200 µg/mL [3]: 31.8% | inhibition at 200 µg/mL [4]: 23.3% | inhibition in vivo at 120 mg/kg [5]: 64%

COc1cc2c(cc1OC)-c1c(C)c3ccc4c(c3c[n+]1CC2)OCO4.[OH-]
inhibition (INH) [6]: 40% | inhibition (INH) [7]: 50%

COc1cc2c(cc1O)-c1c(C)c3ccc4c(c3c[n+]1CC2)OCO4.[OH-]
inhibition (INH) [6]: 40% | inhibition (INH) [7]: 50%

COc1cc2c(cc1O)CC[n+]1cc3c4c(ccc3c(C)c1-2)OCO4.[OH-]
inhibition (INH) [6]: 40% | inhibition (INH) [7]: 50%

COC(=O)c1nc(-c2csc([C@@H](NC(=O)c3cccs3)C(C)C)n2)oc1C
IC50 [2]: 76.4 µM

CC(C)Cc1sc(-c2nccs2)nc1C(=O)O
IC50 [2]: 60 µM

COC(=O)c1nc(-c2nccs2)sc1CC(C)C
IC50 [2]: 2.4 µM

CCOC(=O)c1nc(-c2nccs2)sc1CC(C)C
IC50 [2]: 1.1 µM

CCOC(=O)c1nc(-c2ncc(C)s2)sc1CC(C)C
IC50 [2]: 0.14 µM

Cc1ccc(-c2nnc3sc(CN)cn23)cc1
IC50 [1]: 35 µM

CC(=O)OC[C@H]1O[C@@H](Sc2nnc(-c3ccc(Cl)cc3)n2N)[C@H](OC(C)=O)[C@@H](OC(C)=O)[C@@H]1OC(C)=O
IC50 [1]: 63 µM

Nn1c(SC(c2ccccc2)c2ccccc2)nnc1-c1ccc(Cl)cc1
IC50 [1]: 40 µM

CCC(c1nnc(SCCN2CCN(c3ccccc3OC)CC2)o1)S(=O)(=O)c1ccccc1 (centres undefined)
EC50 [8]: 1.63 µM

Cc1cc(C)n2nc(S)nc2c1
IC50 [9]: 0.12 µM

CCOC(=O)c1c(C[S+]([O-])c2ccc(F)c(F)c2)n(C)c2cc(Br)c(O)c(Cn3ccnc3C)c12 (centres undefined)
IC50 [1]: < 60 µg/mL

CCOC(=O)c1c(C[S+]([O-])c2ccc(F)cc2)n(C)c2cc(Br)c(O)c(CN3CCOCC3)c12 (centres undefined)
IC50 [1]: < 60 µg/mL

CCOC(=O)c1c(CS(=O)(=O)c2cccc(OC)c2)n(C)c2ccc(O)c(CN3CCCC3)c12
IC50 [1]: < 60 µg/mL

CCOC(=O)c1c(CS(=O)(=O)c2ccc(C)cc2)n(C2CC2)c2ccc(O)c(Cn3ccnc3)c12
IC50 [1]: < 60 µg/mL

CCOC(=O)c1cc2cc(OC)c(O)c(Cn3ccnc3)c2nc1C[S+]([O-])c1ccc(F)cc1 (centres undefined)
IC50 [10]: 3.5 µM | selectivity ratio [11]: 37.9

CCOC(=O)c1cc2cc(OC)c(O)c(Cn3ccnc3)c2nc1C[S+]([O-])c1ccc(F)c(F)c1 (centres undefined)
IC50 [10]: 2.6 µM | selectivity ratio [11]: 61.7

COc1cc2cc3c(nc2c(CN2CCCC2)c1O)-c1ccc(C)cc1SC3
IC50 [10]: < 10 µM

COc1cc2cc3c(nc2c(CN2CCCCC2)c1O)-c1ccc(F)cc1SC3
IC50 [10]: < 10 µM

COc1ccc2c(c1)-c1nc3c(CN4CCCCC4)c(O)c(OC)cc3cc1CS2
IC50 [10]: < 10 µM

COc1cc2cc3c(nc2c(Cn2ccnc2C)c1O)-c1ccc(F)cc1SC3
IC50 [10]: 1.7 µM | selectivity ratio [11]: 60.3

O=C1OC(OCc2ccccc2)=N/C1=C\c1ccccc1
IC50 [12]: 5.4 µM

CC(=O)O[C@H]([C@@H](O)C[C@@H](C)C1=C2C[C@H](O)[C@H]3[C@@]4(C)CCC(=O)C(C)(C)[C@@H]4CC[C@]3(C)[C@@]2(C)CC1)C(C)(C)O
IC50 [7]: 0.6 µM

C=C(C)[C@H](O)[C@@H](O)C[C@@H](C)C1=C2C[C@H](O)[C@H]3[C@@]4(C)CCC(=O)C(C)(C)[C@@H]4CC[C@]3(C)[C@@]2(C)CC1
IC50 [7]: 0.6 µM

C[C@@H]1C[C@@H]([C@@H](O)C(C)(C)O)O[C@H]2C[C@@]3(C)C(=C12)C[C@H](O)[C@H]1[C@@]2(C)CCC(=O)C(C)(C)[C@@H]2CC[C@@]13C
IC50 [7]: 0.6 µM

CC(=O)O[C@H]([C@@H]1C[C@@H](C)C2=C3C[C@H](O)[C@H]4[C@@]5(C)CCC(=O)C(C)(C)[C@@H]5CC[C@]4(C)[C@@]3(C)C[C@@H]2O1)C(C)(C)O
IC50 [6]: 5.1 µM | selectivity ratio [13]: 18.5 | IC50 [7]: 0.6 µM

O=C1NCc2c1cc1ccc3c(c1c2-c1ccc2c(c1)OCO2)OCO3
EC50 [1]: 0.08 µM

O=c1[nH][nH]c(=O)c2c(-c3ccc4c(c3)OCO4)c3c4c(ccc3cc12)OCO4
EC50 [1]: 0.03 µM

C[C@H](C[C@H](O)[C@@H](O)C(C)(C)O)[C@]12CC[C@@]3(C)[C@@]1(C[C@H](O)[C@H]1[C@@]4(C)CCC(=O)C(C)(C)[C@@H]4CC[C@@]13C)O2
IC50 [7]: 0.6 µM

C[C@@H]1CC[C@]2(C(=O)O[C@@H]3O[C@H](CO)[C@@H](O)[C@H](O)[C@H]3O)CC[C@]3(C)C(=CC[C@@H]4[C@@]5(C)C[C@@H](O)[C@H](O)C(C)(C)[C@@H]5CC[C@]43C)[C@@H]2[C@]1(C)O
selectivity ratio [14]: 4.1 | IC50 [6]: 30 µg/mL | IC50 [10]: 19.4 µg/mL | inhibition in vivo at 200 mg/kg [15]: 58.5% | selectivity ratio [11]: 12.1 | selectivity ratio [13]: 7.86 | IC50 [7]: 57.7 µg/mL

CCN(CC)Cc1c(O)c(OC)cc2nc3c(cc12)CSc1ccc(C)cc1-3
IC50 [10]: < 10 µM

CCN(CC)Cc1c(O)c(OC)cc2nc3c(cc12)CSc1cc(F)ccc1-3
IC50 [10]: < 10 µM

COc1cc2nc3c(cc2c(CN2CCCCC2)c1O)CSc1c(C)cc(C)cc1-3
IC50 [10]: < 10 µM

COC(=O)C1=C(C)NC(c2ncc(F)cc2F)=N[C@H]1c1ccc(F)cc1Cl
IC50 [2]: 0.05 µM

C[C@@H]1CC[C@H]2[C@@H](C)C(=O)O[C@@H]3O[C@@]4(C)CC[C@@H]1[C@]32OO4 [ARTEMISININ]
IC50 [16]: 55 µM

C[C@H]1[C@H](OC(=O)CCC(=O)O)O[C@@H]2O[C@@]3(C)CC[C@H]4[C@H](C)CC[C@@H]1[C@@]24OO3 [ARTESUNATE]
IC50 [16]: 2.3 µM

COc1ccc2c(c1OC)CN(C)c1c-2ccc2cc3c(cc12)OCO3 [DIHYDROCHELERYTHRINE]
IC50 [17]: < 0.05 µM | IC50 [18]: < 0.05 µM

O=C1OCc2c1cc1ccc3c(c1c2-c1ccc2c(c1)OCO2)OCO3 [HELIOXANTHIN]
EC50 [1]: 1 µM

Nc1ccn([C@@H]2CS[C@H](CO)O2)c(=O)n1 [LAMIVUDINE]
IC50 [10]: 343 µM | selectivity ratio [11]: 7 | IC50 [2]: 0.26 µM

Cc1oc2nc1C(=O)N[C@@H](C)c1nc(co1)C(=O)N[C@@H](CC(C)C)C(=O)N1CCC[C@H]1C(=O)N[C@@H](C(C)C)c1nc-2cs1 [LEUCAMIDE A]
IC50 [2]: 76.4 µM

CC(=O)Oc1ccccc1C(=O)Nc1ncc([N+](=O)[O-])s1 [NITAZOXANIDE]
EC50 [1]: 0.12 µM

O=Cc1ccc(O)c(O)c1 [PROTOCATECHUALDEHYDE]
IC50 [19]: 4.17 µg/mL (≈ 30.2 µM) | EC50 [20]: 3.94 µg/mL (≈ 28.5 µM) | EC50 [21]: 2.46 µg/mL (≈ 17.8 µM)

Cc1cc(O)c2c(c1)C(=O)c1cccc(O[C@@H]3O[C@H](CO)[C@@H](O)[C@H](O)[C@H]3O)c1C2=O [PULMATIN]
selectivity ratio [14]: > 42 | selectivity ratio [11]: > 42 | selectivity ratio [13]: > 42

COc1c(O)cc(O)c2c(=O)cc(-c3ccccc3)oc12 [WOGONIN]
inhibition at 20 µg/mL [22]: 45.4% | IC50 [23]: 4 µg/mL (≈ 14.1 µM)
